Laboratory results from patent US20240166629A1, “HETEROCYCLIC COMPOUNDS CAPABLE OF ACTIVATING STING” (Boehringer Ingelheim International GmbH, priority 2022, published 2024).

How the values were obtained:
[1] = target: T1, human STING variant R293Q (Homo sapiens, UniProt Q86WV6, H232R/R293Q); experiment: THP1-Blue ISG IRF-inducible SEAP reporter assay, STING R293Q-variant; assay type: cell-based; settings: THP1-Blue ISG hSTING KO cells expressing STING R293Q; 24 hours incubation
T1 construct: expressed in transfected cells; host or cells: THP1-Blue ISG hSTING KO clone, retroviral MSCV-ires-GFP-Blasti
Text: (§1) Activation of the STING protein expressed in cell lines results in an increase of interferon production. By the stable integration of an interferon regulatory factor (IRF)-inducible SEAP gene (secreted embryonic alkaline phosphatase) reporter construct the functional interferon signaling pathway can be monitored. Using Invivogen's THP1-Blue™ ISG colorimetric enzyme assay and a suitable optical density (OD) reader the activity of SEAP can be detected and quantified. This technique could be used to characterize pharmacological modification of the STING pathway.
(§2) Several single nucleotide polymorphisms have been identified in the human STING gene. To determine the activity of the above described compounds, THP1-Blue™ ISG reporter cell lines expressing the different human STING variants have been generated. To do so, the endogenous human STING was first deleted using the CRISPR/CAS9 system: THP1-Blue ISG cells were electroporated with ALL-IN-ONE CRISPR plasmids targeting the STING gene (purchased from Sigma encoding the gRNA and GFP as a reporter gene for successful transduction). GFP positive cells then were sorted 24 h post transfection and expanded. Cells were then dispersed in semisolid methocel medium to allow single cell clone isolations. Clones were then screened for cGAMP responsiveness using the Quanti-Blue™ reporter assay. Non-responsive clones were subsequently analysed for STING loss by western blotting and sequencing of the STING locus.
(§3) For the overexpression of the human STING variants, a confirmed THP1-Blue™ ISG hSTING KO clone was transduced with individual retroviral plasmids (MSCV-ires-GFP-Blasti) encoding the allelic variants of hSTING (WT (H232R), HAQ, R232H, AQ and R293Q). Transduced cells were sorted for different levels of GFP fluorescence and STING allele expression was analysed by western blot.
(§4) Measurements of SEAP activity were performed in THP1-Blue™ ISG cells stably expressing the different human STING isoforms and the IRF-inducible SEAP reporter construct. Cells were cultivated in RPMI1640 medium with 10% fetal calf serum, 50 μg/ml Penicillin-Streptomycin, 100 μg/ml Zeocin, and 100 μg/ml Normocin in a 37°, 95% humidity and 5% CO2 incubator.
(§5) In preparation for the assay, the cells were distributed into the assay plates with a density of 10000 cells/15 μL per well. Compounds were prepared by an 8 point serial dilution in 50% aqueous DMSO and a final dilution step into medium to ensure a final DMSO concentration of 0.5% in the assay. 5 μL of diluted compounds were added to the plates, followed by a 24 hours incubation at 37° C.
(§6) At the day of the assay, 75 μl per well of Quanti-Blue™ reagent was added to all wells of the plate and the plate was incubated another 30 minutes at 37° C. The OD at 620 nm was measured on the EnVision reader (PerkinElmer).

[2] = target: T2, human STING variant H232R (WT) (Homo sapiens, UniProt Q86WV6, H232R); experiment: THP1-Blue ISG IRF-inducible SEAP reporter assay, STING H232R-variant; assay type: cell-based; settings: THP1-Blue ISG hSTING KO cells expressing STING H232R; 24 hours incubation
T2 construct: expressed in transfected cells; host or cells: THP1-Blue ISG hSTING KO clone, retroviral MSCV-ires-GFP-Blasti
Text: as §1, §2, §3, §4, §5, §6

[3] = tested on: Human STING (hSTING, UNIPROT entry Q86WV6, residues 155-341); experiment: Interaction with hSTING by differential scanning fluorimetry (DSF); assay type: binding; settings: 100 μM test compound, 5 μM hSTING protein
Experimental: In DSF, the temperature at which a protein unfolds, also called the melting temperature Tm, is measured by changes in fluorescence of a dye that binds to the hydrophobic parts of the protein. Tm shifts upon binding of a small molecule are correlated with the binding affinity of this small molecule. As target protein, Human STING (hSTING, UNIPROT entry Q86WV6, residues 155-341, MW: 21578.4 Da; protein stock solution: c=1302 μM stock solution in 20 mM Tris, 100 mM NaCl, 2 mM TCEP pH 8.8) was used, as assay buffer 20 mM Tris, 150 mM NaCl pH7.5 was added where and as necessary.
Final concentrations of components in assay: 100 μM test compounds, 5 μM target protein, “5×” SYPR Orange (from stock solution SYPRO orange solution in DMSO (invitrogen cat.-no. 56650-500ul), concentration “5000×”)
Assay Procedure: • 1) Dilutions of compound stock solutions (10 mM in DMSO) were prepared in assay buffer (20 mM Tris, 150 mM NaCl; pH7.5) • 2) 5 μl fluorescent dye stock solution (5000×SYPRO Orange in DMSO) was mixed with 19 μl target protein (1302 μM) and 976 μl assay buffer. • 3) 2 μl of this protein-dye-mixture (25×SYPRO Orange and 25 μM Protein) was added to 8 μl diluted compound solution as prepared in step 1. Final volume was 10 μl. • 4) With every 20 compounds, two negative controls were measured. • 5) The plates were prepared for duplicate measurement and centrifuged for 2 min at 1000 g. • 6) For the measurement, a CFX384 Real-Time System (Bio-Rad) was used. The run consisted of 140 cycles with 0.5° C./cycle (temperature ramp 15 s/cycle, 25° C. to 95° C.).
Data analysis: The melting curves were processed in Bio-Rad CFX Manager. Peak type was set to “negative”. Two replicates of TM (melting temperature) measurements were averaged and the standard deviation was calculated.

[4] = target: T3, human STING variant HAQ (Homo sapiens, UniProt Q86WV6, G230A/H232R/R293Q/R71H); experiment: THP1-Blue ISG IRF-inducible SEAP reporter assay, STING HAQ-variant; assay type: cell-based; settings: THP1-Blue ISG cells expressing STING HAQ (parental or re-introduced); 24 hours incubation; SEAP OD 620 nm
T3 construct: expressed in transfected cells; host or cells: THP1-Blue ISG: either parental cells (endogenous HAQ) or hSTING KO clone retrovirally transduced with HAQ
Text: as §1, §2, §3, §4, §5, §6
Data of EC50 values on STING HAQ-variant can be found in table 2a. Shown data below were either derived from the parental THP1-Blue™ ISG cell lines (which express endogenously HAQ) or from genetically engineered THP1-Blue™ ISG cell lines in which first STING has been knocked-out and the HAQ specific STING isoform has been re-introduced as described above.

[5] = target: T4, human STING variant AQ (Homo sapiens, UniProt Q86WV6, G230A/H232R/R293Q); experiment: THP1-Blue ISG IRF-inducible SEAP reporter assay, STING AQ-variant; assay type: cell-based; settings: THP1-Blue ISG hSTING KO cells expressing STING AQ; 24 hours incubation
T4 construct: expressed in transfected cells; host or cells: THP1-Blue ISG hSTING KO clone, retroviral MSCV-ires-GFP-Blasti
Text: as §1, §2, §3, §4, §5, §6

[6] = target: T5, human STING variant R232H (Homo sapiens, UniProt Q86WV6); experiment: THP1-Blue ISG IRF-inducible SEAP reporter assay, STING R232H-variant; assay type: cell-based; settings: THP1-Blue ISG hSTING KO cells expressing STING R232H; 24 hours incubation
T5 construct: expressed in transfected cells; host or cells: THP1-Blue ISG hSTING KO clone, retroviral MSCV-ires-GFP-Blasti
Text: as §1, §2, §3, §4, §5, §6

[7] = in vitro; settings: human, Caco-2, pH 7.4
Experimental: Caco-2 cells were obtained from Leibniz Institute DSMZ-German Collection of Microorganisms and Cell Cultures (Braunschweig, Germany) and cultured in DMEM (Dulbecco's modified Eagle medium) containing (in final concentrations) 10% FCS (fetal calf serum), 1% NEAA (non-essential amino acids), 2 mM Glutamin, 100 U/mL Penicillin and 100 μg/mL Streptomycin. Caco-2 cells were seeded either onto 24-well Transwell inserts (Corning, #3379) for bidirectional permeability assays at a density of 160,000 cells/cm^2 and cultured for 3 weeks, with media change on every second day.
For bidirectional permeability assays 10 mM DMSO stock solutions were diluted in transport buffer (final concentrations: 128.13 mM NaCl, 5.36 mM KCl, 1 mM MgSO4, 1.8 mM CaCl2, 4.17 mM NaHCO3, 1.19 mM Na2HPO4, 0.41 mM NaH2PO4, 15 mM 2-[4-(2-hydroxyethyl)piperazin-1-yl]ethanesulfonic acid (HEPES), 20 mM glucose, pH 7.4) containing 0.25% bovine serum albumin to a final concentration of 10 μM of the test compounds and added to the apical or basal compartment. Cells were incubated with the compounds for up to 2 h. Samples from the opposite compartment were taken at different timepoints.
Compound concentrations in the compartments were quantified using a RapidFire-based high-throughput HPLC/MS/MS system (high performance liquid chromatography/mass spectrometry; BioCius) that was customized to a fully automated and flexible platform, termed RIAS. In this modified setup, the sample was aspirated by a vacuum pump into a 10 μL sample loop for 250 ms and flushed onto a C4 cartridge (3.8 μL bed volume; BioCius) with the aqueous mobile phase (99.9% water, 0.09% formic acid, and 0.01% TFA; flow rate 1.5 mL/min). Prior to bioanalysis samples were spiked with internal standard solution and diluted with acetonitrile (ACN) for protein precipitation. Measurement was operated in multiplereaction monitoring (MRM) mode. Quantification was performed using external calibration. A solid-phase extraction step retained the analyte for 3000 ms while interfering matrix (e.g., buffer components) was removed. With a simple step gradient, the analyte was back-eluted from the cartridge for 3,000 ms with the organic mobile phase (99.9% acetonitrile/methanol [1:1, v:v], 0.09% formic acid, and 0.01% TFA) and flushed into the mass spectrometer at a flow rate of 1.25 mL/min. Afterwards, the cartridge was reequilibrated with the aqueous mobile phase for 500 ms (flow rate 1.5 mL/min). The RapidFire software and a customized control software were obtained from BioCius. QuickQuan 2.3, Xcalibur 2.0.7, and XDK 2.1.0.25 were used to operate the TSQ Vantage mass spectrometer (ThermoFisher, San Jose, CA) integrated to the RapidFire system. Mass spectral data-processing software QuickCalc 7.1.9 was purchased from ThermoFisher. The Master software for the RIAS was programmed in-house using LabVIEW (version 8.6.1; National Instruments, Austin, TX). Data analysis was performed in AssayExplorer 3.2 (Symyx, Sunnyvale, CA), and correlation plots were visualized in Spotfire version 2.2.0 (TIBCO, Palo Alto, CA).
Apparent permeability coefficients in the apical to basal direction (Papp,AB) and in the basal to apical direction (Papp,BA) and efflux ratios were calculated as follows:
Efflux ratio=Papp,BA/Papp,AB
where Q is the amount of compound recovered in the receiver compartment after the incubation time t, C0 the initial compound concentration given to the donor compartment, and s the surface area of the Transwell inserts. […] In addition, transepithelial electrical resistance (TEER) values are measured for each plate before the permeability assay, and total recovery in donor and receiver compartments was determined for each compound.

T2 sequence (Q86WV6 whole entry H232R): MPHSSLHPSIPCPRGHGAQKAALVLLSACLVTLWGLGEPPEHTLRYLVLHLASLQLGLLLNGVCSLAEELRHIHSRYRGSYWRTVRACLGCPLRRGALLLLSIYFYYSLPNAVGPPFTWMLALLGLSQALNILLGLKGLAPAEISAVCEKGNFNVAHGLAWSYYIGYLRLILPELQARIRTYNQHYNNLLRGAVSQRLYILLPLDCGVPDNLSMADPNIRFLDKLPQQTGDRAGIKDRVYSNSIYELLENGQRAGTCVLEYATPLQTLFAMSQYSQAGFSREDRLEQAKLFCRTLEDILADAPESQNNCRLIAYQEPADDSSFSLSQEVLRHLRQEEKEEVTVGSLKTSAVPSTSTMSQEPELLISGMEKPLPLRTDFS
T5 sequence (Q86WV6 whole entry, stated change not applied): as the sequence (Q86WV6 whole entry H232R) above, with R232H counted along it
T1 sequence (Q86WV6 whole entry H232R/R293Q): as the sequence (Q86WV6 whole entry H232R) above, with R293Q counted along it
T3 sequence (Q86WV6 whole entry R71H/G230A/H232R/R293Q): as the sequence (Q86WV6 whole entry H232R) above, with R71H, G230A, R293Q counted along it
T4 sequence (Q86WV6 whole entry G230A/H232R/R293Q): as the sequence (Q86WV6 whole entry H232R) above, with G230A, R293Q counted along it

Structure (SMILES) | EC50 [1] [nM] | EC50 [2] [nM] | TM (changes in TM, thermal shift) [3] [K] | EC50 [4] [nM] | EC50 [5] [nM] | EC50 [6] [nM] | Papp A→B at 10 μM [7] [×10⁻⁶ cm/s] | efflux ratio at 10 μM [7]
Cc1c(Cl)ccc2c(-c3cccc4nn(C)cc34)nn(-c3ccc(N4CCC(S(C)(=O)=O)CC4)nc3)c12 [compound 2, 6-chloro-2′,7-dimethyl-1-(6-(4-(methylsulfonyl)piperidin-1-yl)pyridin-3-yl)-1H,2′H-3,4′-biindazole] | 700 | 300 | 22 | 900 | 600 | 300 | – | –
Cc1c(Cl)ccc2c(-c3cccc4nn(C)cc34)nn(-c3ccc(N4CCC(C(=O)O)CC4)nc3)c12 [compound 9, 1-(5-(6-chloro-2′,7-dimethyl-1H,2′H-[3,4′-biindazol]-1-yl)pyridin-2-yl)piperidine-4-carboxylic acid] | – | – | – | 700 | – | – | 10 | 1.5
Cc1cc(F)cc2c(-c3cccc4nn(C)cc34)nn(-c3ccc(N4C[C@@H]5[C@H](C4)[C@H]5C(=O)O)nc3)c12 [compound 5, (1R,5S,6r)-3-(5-(5-fluoro-2′,7-dimethyl-1H,2′H-[3,4′-biindazol]-1-yl)pyridin-2-yl)-3-azabicyclo[3.1.0]hexane-6-carboxylic acid] | 600 | 600 | 26 | 600 | 400 | 300 | 8 | 2.6
Cc1cc(Cl)cc2c(-c3cccc4nn(C)cc34)nn(-c3ccc(N4CCC(C(=O)O)CC4)nc3)c12 [compound 10, 1-(5-(5-chloro-2′,7-dimethyl-1H,2′H-[3,4′-biindazol]-1-yl)pyridin-2-yl)piperidine-4-carboxylic acid] | 7800 | 2200 | 19 | 6600 | 5600 | 2200 | – | –
Cc1c(Cl)ccc2c(-c3cccc4nn(C)cc34)nn(-c3ccc(N4C[C@@H]5[C@H](C4)[C@H]5C(=O)O)nc3)c12 [compound 8, (1R,5S,6r)-3-(5-(6-chloro-2′,7-dimethyl-1H,2′H-[3,4′-biindazol]-1-yl)pyridin-2-yl)-3-azabicyclo[3.1.0]hexane-6-carboxylic acid] | 100 | 100 | 22 | 100 | 100 | 100 | 11 | 1.4
Cc1c(F)ccc2c(-c3cccc4nn(C)cc34)nn(-c3ccc(N4CCC(C(=O)O)CC4)nc3)c12 [compound 7, 1-(5-(6-fluoro-2′,7-dimethyl-1H,2′H-[3,4′-biindazol]-1-yl)pyridin-2-yl)piperidine-4-carboxylic acid] | – | 200 | – | 800 | – | – | 13 | 1.8
Cc1c(Cl)c(F)cc2c(-c3cccc4nn(C)cc34)nn(-c3ccc(N4CCC(C(=O)O)CC4)nc3)c12 [compound 12, 1-(5-(6-chloro-5-fluoro-2′,7-dimethyl-1H,2′H-[3,4′-biindazol]-1-yl)pyridin-2-yl) piperidine-4-carboxylic acid] | 600 | 300 | – | 700 | 600 | 300 | 4 | 6.4
Cc1cc(F)cc2c(-c3cccc4nn(C)cc34)nn(-c3ccc(N4CCN(C=O)CC4)nc3)c12 [Example #3, 4-(5-(5-Fluoro-2′,7-dimethyl-1H,2′H-[3,4′-biindazol]-1-yl)pyridin-2-yl)piperazine-1-carbaldehyde] | 1800 | 600 | 21 | 1900 | 1000 | 600 | 15 | 1.7
Cc1c(F)ccc2c(-c3cccc4nn(C)cc34)nn(-c3ccc(N4C[C@@H]5[C@H](C4)[C@H]5C(=O)O)nc3)c12 [compound 6, (1R,5S,6r)-3-(5-(6-fluoro-2′,7-dimethyl-1H,2′H-[3,4′-biindazol]-1-yl)pyridin-2-yl)-3-azabicyclo[3.1.0]hexane-6-carboxylic acid] | – | 200 | – | 300 | – | – | 9 | 2.4
Cc1cc(Cl)cc2c(-c3cccc4nn(C)cc34)nn(-c3ccc(N4C[C@@H]5[C@H](C4)[C@H]5C(=O)O)nc3)c12 [compound 11, (1R,5S,6r)-3-(5-(5-chloro-2′,7-dimethyl-1H,2′H-[3,4′-biindazol]-1-yl)pyridin-2-yl)-3-azabicyclo[3.1.0]hexane-6-carboxylic acid] | 3000 | 800 | 24 | 3900 | 2400 | 900 | – | –
Cc1c(Cl)c(F)cc2c(-c3cccc4nn(C)cc34)nn(-c3ccc(N4C[C@@H]5[C@H](C4)[C@H]5C(=O)O)nc3)c12 [compound 13, (1R,5S,6r)-3-(5-(6-chloro-5-fluoro-2′,7-dimethyl-1H,2′H-[3,4′-biindazol]-1-yl)pyridin-2-yl)-3-azabicyclo[3.1.0] hexane-6-carboxylic acid] | – | – | – | 300 | – | – | 2 | 3.6
Cc1cc(F)cc2c(-c3cccc4nn(C)cc34)nn(-c3ccc(N4CCS(=O)(=O)CC4)nc3)c12 [Example #1, 4-(5-(5-fluoro-2′,7-dimethyl-1H,2′H-[3,4′-biindazol]-1-yl)pyridin-2-yl)thiomorpholine 1,1-dioxide] | 2200 | 800 | 21 | 2300 | 1800 | 700 | – | –
